# Target: Recombinant human IDO (Homo sapiens, UniProt P14902)
# Assay: Bridge-IT tryptophan fluorescence assay of human IDO-1 inhibition
# Format: biochemical
# Settings: recombinant human IDO 7.5 nM, L-tryptophan
# In short: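 One variant ran L-Trp at 100 μM for 90 min at 37 °C. The other pre-incubated compound for 30 min at 25 °C, then ran 50 μM L-Trp for 60 min at 25 °C.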
# Sequence of Recombinant human IDO (P14902 whole entry): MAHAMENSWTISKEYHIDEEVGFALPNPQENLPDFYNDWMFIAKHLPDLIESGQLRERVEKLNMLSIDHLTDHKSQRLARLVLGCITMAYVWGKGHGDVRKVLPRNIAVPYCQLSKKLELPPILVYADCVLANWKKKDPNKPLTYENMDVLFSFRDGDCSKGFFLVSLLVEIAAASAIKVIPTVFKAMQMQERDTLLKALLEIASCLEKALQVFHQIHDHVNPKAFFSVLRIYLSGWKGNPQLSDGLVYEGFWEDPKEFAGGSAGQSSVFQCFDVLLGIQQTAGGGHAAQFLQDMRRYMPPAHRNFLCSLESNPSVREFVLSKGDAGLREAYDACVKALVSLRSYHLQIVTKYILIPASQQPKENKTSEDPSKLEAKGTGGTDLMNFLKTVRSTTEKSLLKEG
row,Compound,IC50
1,"OC(CC1c2ncccc2-c2cncn21)C1(F)CCCCC1 (single isomer, unassigned) [Compound 109a, 1-(1-fluorocyclohexyl)-2-[4,6,9-triazatricyclo[6.4.0.0^[2,6]]dodeca-1(8),2,4,9,11-pentaen-7-yl]ethan-1-ol]",> 1000 nM
2,"OC1CCC(F)(CCC2c3cccc(F)c3-c3cncn32)CC1 (single isomer, unassigned) [Compound 35d, 4-fluoro-4-(2-(9-fluoro-5H-imidazo[5,1-a]isoindol-5-yl)ethyl)cyclohexanol]",> 1000 nM
3,"OC1CCC(C(O)CC2c3ncccc3-c3cncn32)CC1 (stereo not shown) [Compound 6a, 4-[1-hydroxy-2-[4,6,9-triazatricyclo[6.4.0.0^[2,6]]dodeca-1(8),2,4,9,11-pentaen-7-yl]ethyl]cyclohexan-1-ol]",> 1000 nM
4,"OC(CC1c2nc(OC3CC3)ccc2-c2cncn21)C1CCC(F)(F)CC1 (single isomer, unassigned) [Compound 69b, 2-[10-cyclopropoxy-4,6,9-triazatricyclo[6.4.0.0^[2,6]]dodeca-1(8),2,4,9,11-pentaen-7-yl]-1-(4,4-difluorocyclohexyl)ethan-1-ol]",> 1000 nM
5,"O=C(C1CCC(F)(CCC2c3ncccc3-c3cncn32)CC1)N1CCCCC1 (mixture of isomers) [Compound 100a, 7-[2-[1-Fluoro-4-[(piperidin-1-yl)carbonyl]cyclohexyl]ethyl]-4,6,9-triazatricyclo[6.4.0.0^[2,6]]dodeca-1(8),2,4,9,11-pentaene]",100 to 1000 nM
6,"OC(CC1c2ncccc2-c2cncn21)C1CCCCC1 (single isomer, unassigned) [Compound 5b, 1-cyclohexyl-2-[4,6,9-triazatricyclo[6.4.0.0^[2,6]]dodeca-1(8),2,4,9,11-pentaen-7-yl]ethan-1-ol]",> 1000 nM
7,"CC1(C)CCC(C(O)CC2c3nc(F)ccc3-c3cncn32)CC1 (single isomer, unassigned) [Compound 25d, 1-(4,4-dimethylcyclohexyl)-2-[10-fluoro-4,6,9-triazatricyclo[6.4.0.0^[2,6]]dodeca-1(8),2,4,9,11-pentaen-7-yl]ethan-1-ol]",> 1000 nM
8,"OC1CCC(C(F)(F)CC2c3c(F)cccc3-c3cncn32)CC1 (mixture of isomers) [Compound 75b, 4-(1,1-difluoro-2-[6-fluoro-5H-imidazo[4,3-a]isoindol-5-yl]ethyl)cyclohexan-1-ol]",100 to 1000 nM
9,"OC(CC1c2ncccc2-c2cncn21)C1CCOCC1 (single isomer, unassigned) [Compound 92b, 1-(oxan-4-yl)-2-[4,6,9-triazatricyclo[6.4.0.0^[2,6]]dodeca-1(8),2,4,9,11-pentaen-7-yl]ethan-1-ol]",> 1000 nM
10,"OC(CC1c2ncccc2-c2cncn21)C1CCC(C2(O)CC2)CC1 (single isomer, unassigned) [Compound 117a, 1-[4-[1-hydroxy-2-[4,6,9-triazatricyclo[6.4.0.0^[2,6]]dodeca-1(8),2,4,9,11-pentaen-7-yl]ethyl]cyclohexyl]cyclopropan-1-ol]",> 1000 nM
11,"OC(CC1c2ncccc2-c2cncn21)C1(F)CCCCC1 (single isomer, unassigned) [Compound 109c, 1-(1-fluorocyclohexyl)-2-[4,6,9-triazatricyclo[6.4.0.0^[2,6]]dodeca-1(8),2,4,9,11-pentaen-7-yl]ethan-1-ol]",100 to 1000 nM
12,"OC(CC1c2ncccc2-c2cncn21)C1(F)CCC(F)(F)CC1 (single isomer, unassigned) [Compound 87d, 2-[4,6,9-triazatricyclo[6.4.0.0^[2,6]]dodeca-1(8),2,4,9,11-pentaen-7-yl]-1-(1,4,4-trifluorocyclohexyl)ethan-1-ol]",100 to 1000 nM
13,"CC(C)(C)C(=O)N1CCC(C(O)CC2c3ncccc3-c3cncn32)CC1 (single isomer, unassigned) [Compound 88b, 1-[4-[1-hydroxy-2-[4,6,9-triazatricyclo[6.4.0.0^[2,6]]dodeca-1(8),2,4,9,11-pentaen-7-yl]ethyl]piperidin-1-yl]-2,2-dimethylpropan-1-one]",> 1000 nM
14,"OC(CC1c2nc(C(F)(F)F)ccc2-c2cncn21)C1CCC(F)(F)CC1 (single isomer, unassigned) [Compound 77c, 1-(4,4-difluorocyclohexyl)-2-[10-(trifluoromethyl)-4,6,9-triazatricyclo[6.4.0.0^[2,6]]dodeca-1(8),2,4,9,11-pentaen-7-yl]ethan-1-ol]",> 1000 nM
15,"OC1CCC(F)(CCC2c3nccc(F)c3-c3cncn32)CC1 (mixture of isomers) [Compound 103a, 4-fluoro-4-(2-[12-fluoro-4,6,9-triazatricyclo[6.4.0.0^[2,6]]dodeca-1(8),2,4,9,11-pentaen-7-yl]ethyl)cyclohexan-1-ol]",> 1000 nM
16,"NS(=O)(=O)C1CCC(F)(CCC2c3ccccc3-c3cncn32)CC1 (single isomer, unassigned) [Compound 121a, 4-fluoro-4-[2-[5H-imidazo[4,3-a]isoindol-5-yl]ethyl]cyclohexane-1-sulfonamide]",< 100 nM

# Continued, values first:
row,IC50,Compound
1,100 to 1000 nM,"OC1(C2CCC(F)(CCC3c4c(F)cccc4-c4cncn43)CC2)CC1 (stereo not shown) [Compound 85b, 1-[4-fluoro-4-(2-[6-fluoro-5H-imidazo[4,3-a]isoindol-5-yl]ethyl)cyclohexyl]cyclopropan-1-ol]"
2,> 1000 nM,"FC1(CCC2c3c(Cl)cccc3-c3cncn32)CCC2(CC1)CC2 (single isomer, unassigned) [Compound 91b, 6-chloro-5-(2-[6-fluorospiro[2.5]octan-6-yl]ethyl)-5H-imidazo[4,3-a]isoindole]"
3,< 100 nM,"OCC1CCC(F)(CCC2c3ccccc3-c3cncn32)CC1 (single isomer, unassigned) [Compound 59c, [4-fluoro-4-[2-[5H-imidazo[4,3-a]isoindol-5-yl]ethyl]cyclohexyl]methanol]"
4,> 1000 nM,"OC(CC1c2c(Cl)cccc2-c2cncn21)C1(F)CCCCC1 (single isomer, unassigned) [Compound 83c, 2-[6-chloro-5H-imidazo[4,3-a]isoindol-5-yl]-1-(1-fluorocyclohexyl)ethan-1-ol]"
5,> 1000 nM,"NC(=O)CC1CCC(F)(CCC2c3c(Cl)cccc3-c3cncn32)CC1 (single isomer, unassigned) [Compound 113b, 2-[4-[2-[6-chloro-5H-imidazo[4,3-a]isoindol-5-yl]ethyl]-4-fluorocyclohexyl]acetamide]"
6,> 1000 nM,"FC1(CCC2c3c(Cl)cccc3-c3cncn32)CCOCC1 (single isomer, unassigned) [Compound 96a, 6-chloro-5-[2-(4-fluorooxan-4-yl)ethyl]-5H-imidazo[4,3-a]isoindole]"
7,> 1000 nM,"NC(=O)CC1CCC(F)(CCC2c3c(F)cccc3-c3cncn32)CC1 (single isomer, unassigned) [Compound 116a, 2-[4-Fluoro-4-[2-[6-fluoro-5H-imidazo[4,3-a]isoindol-5-yl]ethyl]cyclohexyl]acetamide]"
8,< 100 nM,"NC(=O)CC1CCC(F)(CCC2c3c(Cl)cccc3-c3cncn32)CC1 (single isomer, unassigned) [Compound 113a, 2-[4-[2-[6-chloro-5H-imidazo[4,3-a]isoindol-5-yl]ethyl]-4-fluorocyclohexyl]acetamide]"
9,< 100 nM,"CN(C)C(=O)C1CCC(F)(CCC2c3c(F)cccc3-c3cncn32)CC1 (mixture of isomers) [Compound 111a, 4-fluoro-4-(2-[6-fluoro-5H-imidazo[4,3-a]isoindol-5-yl]ethyl)-N,N-dimethylcyclohexane-1-carboxamide]"
